Test results as given in US11137392B2, “Cantilever sensors for molecule detection” (3P SENSE LIMITED, priority 2016, dated 2021).

Tests used:
[1] = tested on: vancomycin susceptible receptor (VSR); test: Differential cantilever bending / surface stress of unpassivated VSR-functionalized cantilevers against Van; assay type: binding
Experimental: Detection of cantilever bending response in case of optical readout is performed, for example, by using serial time multiplexed optical beam method with a single position sensitive detector, although other readouts such as electronic or diffraction can be used. The laser spot (about 100 μm diameter) is aligned onto the free end of each sensor where the accuracy of alignment is confirmed by heating test. The expected precision of laser spot alignment is determined by calculating the bending variation at the maximum bending signals between individual cantilever sensors. Well aligned cantilevers at the maximum bending signals should yield a relative standard deviation of the bending signals of about ≤10%, preferably about ≤5%, between them. Correlating the response signal to the presence or absence of the molecule to be detected includes a first step of calculating the net change in stress, using the mathematical model reported above, and then a second step of associating the net change in stress value to the presence of absence of the molecule and, in case of presence, to the concentration level of the molecule.
Case I: Simultaneous functionalization of Au(top) and Si(bottom) surfaces of cantilever arrays: To systematically alter both Au(top) and Si(bottom) surfaces into chemically active sensing layers, the arrays of eight rectangular cantilevers were subjected to surface capture molecules in micro-capillary glass tubes (King Precision Glass, Claremont, Calif., USA), arranged according to the cantilever pitch size of 250 μm. The alkanethiols of self-assembled monolayers (SAMs), namely vancomycin susceptible receptor (VSR˜0.6 kDa) analogues to bacterial cell wall precursors that present uncrosslinked peptide motifs terminating in the sequence lysine-D-alanine-D-alanine and ‘inert’ SAM molecule terminating in triethylene glycol (PEG) whose detailed structural sequences have been described previously were diluted in ethanol solution to yield total concentrations of: 0.1 μM, 1 μM, 10 μM, 50 μM, 100 μM, 1000 μM, 2000 μM, 3000 μM and 4000 μM. Individual VSR and PEG concentrations were injected into micro-capillary glass tubes and cantilevers were then incubated inside the capillaries for 20 min, washed three times with ethanol and stored in distilled water until usage. The functionalization procedure was carried out without pre-adsorbing resistive protein monolayer bovine serum albumin (BSA) or PEG-silane, known for blocking nonspecific interactions.
To tune the receptor footprint (area per each receptor molecule) for enhanced biodetectability and to achieve satisfactory quantitative drug-target measurements, certain steps within the functionalization protocol were addressed. The first task was to define the percentage ratio of VSR by incorporating a receptor molecule with second SAM-forming molecule PEG. The ratio of VSR and PEG molecules dissolved in ethanol was varied to yield a total concentration in the solution of 1 μM, for which full surface coverage was established. The corresponding mixed ethanolic thiol solutions of VSR and ‘inert’ PEG mixed in the ratio of 30%, 70%, 90%, and 100% were used to coat cantilever arrays.
FIG. 1a-b show the functionalization of both surfaces of the cantilever with a self-assembled monolayer (SAM) of vancomycin (Van) susceptible receptor (VSR ˜0.6 kDa) analogues of the bacterial cell wall precursors that present uncrosslinked peptide motifs terminating in the sequence lysine-D-alanine-D-alanine. To eliminate the artifacts that produce non-specific signals differential measurements were performed in which reference polyethylene glycol(PEG)-coated cantilever bending signals were subtracted from the receptor signals.
This functionalization was performed without pre-adsorbing a resistive protein monolayer of bovine serum albumin (BSA) or PEG-silane, which are known to block non-specific interactions. […]

[2] = tested on: vancomycin susceptible receptor (VSR); conditions: previous measurements (known cantilever); cited from earlier work

CN[C@H](CC(C)C)C(=O)N[C@H]1C(=O)N[C@@H](CC(N)=O)C(=O)N[C@H]2C(=O)N[C@H]3C(=O)N[C@H](C(=O)N[C@H](C(=O)O)c4cc(O)cc(O)c4-c4cc3ccc4O)[C@H](O)c3ccc(c(Cl)c3)Oc3cc2cc(c3O[C@@H]2O[C@H](CO)[C@@H](O)[C@H](O)[C@H]2O[C@H]2C[C@](C)(N)[C@H](O)[C@H](C)O2)Oc2ccc(cc2Cl)[C@H]1O [Van, vancomycin]
Compressive stress (differential surface stress) ([1]; Van 250 μM, VSR 50 μM in functionalizing solution, unpassivated cantilever): 52 mN m^−1 | Stress signal σmax ([1]; Van 250 μM, VSR concentration beyond 50 μM (regime II)): ≈ 5 mN m^−1 | Cantilever stress ([1]; Van 250 μM, VSR/PEG 100% receptor, total concentration 1 μM): highest stress | Cantilever deflection signal ([1]; Van 250 μM, VSR/PEG ~30% receptor, total concentration 1 μM): negligible | Differential stress / bending response on reference PEG-coated cantilevers ([1]; Van 250 μM, reference PEG-coated cantilevers): no bending response and zero | Mechanical response on uncoated Au and Si surfaces ([1]; in the presence of Van, uncoated Au and Si surfaces as control): undetectable | Net stress, previous measurements [2]: 33 mN m^−1
